# Laboratory results: patent US4504580A, “Antibiotics produced by fermentation of a novel strain of Streptomyces hygroscopicus” (Bristol-Myers Company, priority 1983, dated 1985)
# Read-outs that look alike come from different tables or passages of the source.
# What was measured:
# Type in all cases: cell-based
# [1] = system: Staphylococcus aureus 209P; test: MIC by serial two-fold agar dilution, S. aureus 209P; conditions: Staphylococcus aureus, 209P
# Method: (§1) The minimum inhibitory concentrations (MIC) of Bu-2659A, B, C, D and E were determined for a variety of gram-positive and gram-negative bacteria by the serial two-fold agar dilution method using the Steer's multi-inoculating apparatus. The inoculum was standardized as a 10^4 dilution of an overnight culture of the test organisms in Heart Infusion Broth (Difco). […] Reference antibiotics utilized in these tests included commercially available neomycin as well as its components, neomycins B and C [as used herein, the term "neomycin" means the commercial product containing neomycins B and C at an approximate ratio of 7:3], paromomycin [the commercial product containing >90% of paromomycin I and <10% of paromomycin II] and ribostamycin.
# [2] = system: Staphylococcus aureus Smith; test: MIC by serial two-fold agar dilution, S. aureus Smith; conditions: Staphylococcus aureus
# Method: as §1
# [3] = system: Staphylococcus aureus D136; test: MIC by serial two-fold agar dilution, S. aureus D136; conditions: Staphylococcus aureus, D136
# Method: as §1
# [4] = system: Micrococcus luteus PCI 1001; test: MIC by serial two-fold agar dilution, M. luteus PCI 1001; conditions: Micrococcus luteus, PCI1001
# Method: as §1
# Micrococcus flavus D12 = test: MIC by serial two-fold agar dilution, M. flavus D12; conditions: Micrococcus flavus, D12
# Method: as §1
# [5] = system: Bacillus subtilis PCI 219; test: MIC by serial two-fold agar dilution, B. subtilis PCI 219; conditions: Bacillus subtilis, PCI219
# Method: as §1
# Escherichia coli NIHJ = test: MIC by serial two-fold agar dilution, E. coli NIHJ; conditions: Escherichia coli
# Method: as §1
# Escherichia coli Juhl = test: MIC by serial two-fold agar dilution, E. coli Juhl; conditions: Escherichia coli
# Method: as §1
# [6] = system: Klebsiella pneumoniae D11; test: MIC by serial two-fold agar dilution, K. pneumoniae D11; conditions: Klebsiella pneumoniae, D11
# Method: as §1
# Proteus vulgaris A9436 = test: MIC by serial two-fold agar dilution, P. vulgaris A9436; conditions: Proteus vulgaris, A9436
# Method: as §1
# Proteus mirabilis A9554 = test: MIC by serial two-fold agar dilution, P. mirabilis A9554; conditions: Proteus mirabilis, A9554
# Method: as §1
# Proteus mirabilis A9906 = test: MIC by serial two-fold agar dilution, P. mirabilis A9906; conditions: Proteus mirabilis, A9906
# Method: as §1
# Proteus morganii A9553 = test: MIC by serial two-fold agar dilution, P. morganii A9553; conditions: Morganella morganii, A9553
# Method: as §1
# Proteus rettgeri A15167 = test: MIC by serial two-fold agar dilution, P. rettgeri A15167; conditions: Providencia rettgeri, A15167
# Method: as §1
# [7] = system: Pseudomonas aeruginosa D15; test: MIC by serial two-fold agar dilution, P. aeruginosa D15; conditions: Pseudomonas aeruginosa, D15
# Method: as §1
# [8] = system: Pseudomonas aeruginosa A9930; test: MIC by serial two-fold agar dilution, P. aeruginosa A9930; conditions: Pseudomonas aeruginosa, A9930
# Method: as §1
# [9] = system: Serratia marcescens A20019; test: MIC by serial two-fold agar dilution, S. marcescens A20019; conditions: Serratia marcescens, A20019
# Method: as §1
# [10] = system: Staphylococcus aureus A20239; test: MIC, aminoglycoside-resistant S. aureus A20239; conditions: Staphylococcus aureus, A20239; Table 9; inactivating enzyme APH(3')-I,II; Mueller-Hinton agar; read-out: MIC
# Method: as §1
# [11] = system: Bacillus brevis IFO 12334; test: MIC, aminoglycoside-resistant B. brevis IFO 12334; conditions: Brevibacillus brevis, IFO12334; Table 9; inactivating enzyme ANT (4'); Mueller-Hinton agar; read-out: MIC
# Method: as §1
# Escherichia coli ML 1630 = test: MIC, aminoglycoside-resistant E. coli ML 1630; conditions: Escherichia coli, ML1630; Table 9; inactivating enzyme APH(3')-I; Mueller-Hinton agar; read-out: MIC
# Method: as §1
# Escherichia coli A20107 = test: MIC, aminoglycoside-resistant E. coli A20107; conditions: Escherichia coli, A20107; Table 9; inactivating enzyme APH(3')-II; Mueller-Hinton agar; read-out: MIC
# Method: as §1
# [12] = system: Escherichia coli JR66/W677; test: MIC, aminoglycoside-resistant E. coli JR66/W677; conditions: Escherichia coli, JR66/W677
# Method: as §1
# Escherichia coli JR88 = test: MIC, aminoglycoside-resistant E. coli JR88; conditions: Escherichia coli, JR88
# Method: as §1
# [13] = system: Escherichia coli JR35/C600; test: MIC, aminoglycoside-resistant E. coli JR35/C600; conditions: Escherichia coli, JR35/C600
# Method: as §1
# Escherichia coli A20732 = test: MIC, aminoglycoside-resistant E. coli A20732; conditions: Escherichia coli, A20732; Table 9; inactivating enzyme ANT(2"); Mueller-Hinton agar; read-out: MIC
# Method: as §1
# [14] = system: Escherichia coli NR79/W677; test: MIC, aminoglycoside-resistant E. coli NR79/W677; conditions: Escherichia coli, NR79/W677
# Method: as §1
# [15] = system: Enterobacter cloacae A20364; test: MIC, aminoglycoside-resistant E. cloacae A20364; conditions: Enterobacter cloacae, A20364; Table 9; inactivating enzyme APH(3')-I; Mueller-Hinton agar; read-out: MIC
# Method: as §1
# [16] = system: Pseudomonas aeruginosa A20601; test: MIC, aminoglycoside-resistant P. aeruginosa A20601; conditions: Pseudomonas aeruginosa, A20601; Table 9; inactivating enzymes AAC(3)-I, APH(3')-II; Mueller-Hinton agar; read-out: MIC
# Method: as §1
# [17] = system: Pseudomonas aeruginosa A20896; test: MIC, aminoglycoside-resistant P. aeruginosa A20896; conditions: Pseudomonas aeruginosa, A20896; Table 9; inactivating enzyme AAC(3)-II; Mueller-Hinton agar; read-out: MIC
# Method: as §1
# bacteria of Table 10 = test: In vitro activity of Bu-2659 DP-I vs neamine, overall, Table 10
# Method: as §1
# The in vitro activity of Bu-2659 DP-I (1-deamino-1-hydroxyneamine) is shown in Table 10 along with that of neamine.
# [18] = Table 10, Mueller-Hinton agar, read-out: MIC
smiles,measurement,setting,value
"NC[C@H]1O[C@H](O[C@H]2[C@H](O[C@@H]3O[C@H](CO)[C@@H](O)[C@H]3O)[C@@H](O)[C@H](N)C[C@@H]2N)[C@H](N)[C@@H](O)[C@@H]1O [Ribostamycin, ribostamycin]",MIC,[1],1.6 µg/mL
same,MIC,[2],3.1 µg/mL
same,MIC,[3],3.1 µg/mL
same,MIC,[4],6.3 µg/mL
same,MIC,Micrococcus flavus D12,12.5 µg/mL
same,MIC,[5],0.4 µg/mL
same,MIC,Escherichia coli NIHJ,3.1 µg/mL
same,MIC,Escherichia coli Juhl,6.3 µg/mL
same,MIC,[6],0.4 µg/mL
same,MIC,Proteus vulgaris A9436,0.8 µg/mL
same,MIC,Proteus mirabilis A9554,1.6 µg/mL
same,MIC,Proteus mirabilis A9906,1.6 µg/mL
same,MIC,Proteus morganii A9553,1.6 µg/mL
same,MIC,Proteus rettgeri A15167,0.8 µg/mL
same,MIC,[7],> 100 µg/mL
same,MIC,[8],100 µg/mL
same,MIC,[9],25 µg/mL
same,MIC,[10],> 100 µg/mL
same,MIC,[11],> 100 µg/mL
same,MIC,Escherichia coli ML 1630,> 100 µg/mL
same,MIC,Escherichia coli A20107,> 100 µg/mL
same,MIC,[12],> 100 µg/mL
same,MIC,Escherichia coli JR88,1.6 µg/mL
same,MIC,[13],> 100 µg/mL
same,MIC,Escherichia coli A20732,1.6 µg/mL
same,MIC,[14],> 100 µg/mL
same,MIC,[15],> 100 µg/mL
same,MIC,[16],> 100 µg/mL
same,MIC,[17],> 100 µg/mL
"NC[C@H]1O[C@H](O[C@H]2[C@H](O)[C@@H](O)[C@H](O)C[C@@H]2N)[C@H](N)[C@@H](O)[C@@H]1O [Bu-2659 DP-I, 1-deamino-1-hydroxyneamine]",MIC,[1]; [18],200 µg/mL
same,MIC,[2]; [18],200 µg/mL
same,MIC,[5]; [18],100 µg/mL
same,MIC,Escherichia coli NIHJ; [18],200 µg/mL
same,MIC,[6]; [18],200 µg/mL
same,MIC,Proteus vulgaris A9436; [18],200 µg/mL
same,MIC,Proteus mirabilis A9554; [18],800 µg/mL
same,MIC,[8]; [18],> 800 µg/mL
same,MIC,Escherichia coli JR88,200 µg/mL
same,"in vitro activity compared with neamine, in words",bacteria of Table 10,much less active than neamine
